We go through four compounds from BindingDB's records for doi:10.1021/jm2017144 (Universidad De Granada, 2012).

One may read the IC50 as the point on the concentration scale where inhibition reaches its midpoint. Read a low IC50 as inhibition by little substance.

Molecules are shown by their SMILES.

For the assay, the target named is Superoxide dismutase [Cu-Zn], SOD1 (Homo sapiens) (UniProt P00441). The assay can be described thus: Inhibition of human erythrocyte Cu-Zn SOD by NBT reduction assay.
Chain of Superoxide dismutase [Cu-Zn], SOD1 (Homo sapiens) (P00441 whole entry, looked up): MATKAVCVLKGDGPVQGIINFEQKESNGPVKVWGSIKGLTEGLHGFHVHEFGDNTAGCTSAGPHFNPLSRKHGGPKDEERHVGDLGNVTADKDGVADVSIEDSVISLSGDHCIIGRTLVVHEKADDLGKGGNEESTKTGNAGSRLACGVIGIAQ
Turning to `c1ccc(Cn2nc3cc2CNCCNCCNCc2cc(n(Cc4ccccc4)n2)CNCCNCCNC3)cc1`, the IC50 turned out to be 155 µM.

For `Cn1nc2cc1CNCCNCCNCc1cc(n(C)n1)CNCCNCCNC2`, it took 96.6 µM to reach half-maximal inhibition (IC50). This IC50 is about 1.6-fold lower than that of the compound before. In the case of `c1c2n[nH]c1CNCCN1CCNCc3cc(n[nH]3)CNCCN(CCNC2)CCNCc2cc([nH]n2)CNCC1` it was 274 µM; in that of `CCCCCCCCN1CCNCc2cc([nH]n2)CNCCN(CCCCCCCC)CCNCc2cc(n[nH]2)CNCC1`, 89.2 µM.
